# Patent US12527764B2, “Methods and compositions for treating androgen receptor deficient, androgen receptor low, and castration-resistant prostate cancers” (FRED HUTCHINSON CANCER CENTER, priority 2019, dated 2026)
# Key:
# AR− APIPC xenograft = AR− APIPC xenograft preclinical trial; format: in vivo; conditions: 15 mg/kg intraperitoneal
# Method: (§1) 1×10^6 AR+ parental and AR− APIPC cells were resuspended 1:1 in Matrigel (Corning): RPMI-1640 (Gibco) and subcutaneously injected into the flanks of intact or castrate NOD-scid IL2Rgamma^null mice respectively. 1×1×1 mm^3 of LuCaP 173.2 tumor chunks were implanted into the flank of castrate mice. Tumor volume was calculated using the formula (L(W^2))/2, where L is the length of the tumor and W the width. When tumors reached 100 mm^3, animals were randomized to receive intraperitoneal injections of 15 mg/kg 4E1RCat (Selleckchem) or vehicle (5.2% PEG400 and 5.2% TWEEN80 in ddH2O), Monday-Friday.
# [1] = system: AR-null non-neuroendocrine LuCaP 173.2 PDX; assay: LuCaP 173.2 PDX preclinical trial; format: in vivo; conditions: 15 mg/kg intraperitoneal
# Method: as §1
# [2] = system: AR+ parental APIPC xenograft; assay: AR+ parental APIPC xenograft preclinical trial; format: in vivo, intact NOD-scid IL2Rgamma^null mice; conditions: uncastrated mice, 15 mg/kg intraperitoneal, versus vehicle
# Method: as §1
# [3] = system: 4ebp1 transcript expression; assay: 4ebp1 transcript expression in castrate Pten^L/L cells under enzalutamide; format: cell-based, mouse; conditions: further inhibition of AR
# Method: Total RNA was isolated using RNeasy Plus Mini Kit (Qiagen) and reverse-transcribed with iScript Reverse Transcription Supermix (Bio-Rad). cDNA was diluted 1:1 with water. Quantitative PCR was performed with 1 μl cDNA using SsoAdvanced SYBR Supermix (Bio-Rad) with primer sets specific for Ar, 4ebp1, Cacul1, Denr, Klf5, Rps15, Gapdh, luciferase, RPS19, and actin (Table 3). Normalized mRNA expression was calculated using the comparative Ct method.
# [4] = system: de novo protein synthesis; conditions: castrate Pten^L/L primary prostate cancer cells, 1 nM DHT add back, 48 hours
# Method: FIG. 9D is a representative western blot of puromycin incorporation with or without addition of 1 nM DHT for 48 hours, which increases AR signaling, in castrate Pten^L/L primary prostate cancer cells (representative of 4 biological replicates).
# Cells were lysed for 30 min on ice in lysis buffer containing 150 mM NaCl, 50 mM Tris, 4 mM KCl, 1 mM MgCl2 1 mM Na3VO4 10% glycerol, 1% Nonidet P-40, supplemented with phosphatase and protease inhibitor cocktails (Roche). Lysates were cleared by centrifugation at 12000 rpm for 15 min at 4° C. Supernatants were removed and assayed for protein concentration using the Protein Assay Dye Reagent (Bio-Rad). Equal amounts of proteins were subjected to SDS-PAGE and transferred to PVDF membranes (Bio-Rad). Membranes were blocked with 5% non-fat milk in PBS-Tween and were subsequently incubated with the following antibodies at 4° C. overnight: AR (N-terminus, Abcam), AR (C-terminus, SCBT), AR (GeneTex), p-AKT (S473, CST), p-AKT (T308, CST), eIF4E (BD Biosciences), eIF4A (CST), eIF4G (CST), 4EBP1 (CST), p-4EBP1 (Thr37/46, CST), KLF5 (Abcam), DENR (GeneTex), CACUL1 (GeneTex) FLAG (Sigma), RPS15 (Abcam), PTEN (CST), synaptophysin (CST), chromogranin A (Abcam). […] Signal detection was performed using the ChemiDoc Touch Imaging System (Bio-Rad) or standard film, and quantified using ImageJ.
# [5] = system: primary intact (DHT+) Pten^L/L cells; assay: IncuCyte in vitro proliferation assay, primary intact Pten^L/L cells; format: cell-based, mouse; conditions: 48 hours, same drug concentrations as in castrate cells
# Method: (§2) Human APIPC cell lines were provided by P.S.N., and grown as previously described (11). PC3-4EBP1^M, VCaP, 22Rv1, C4-2, and LNCaP cells were cultured in RPMI-1640 with 10% FBS or phenol-red free RPMI with 10% charcoal stripped FBS (Gemini). Intact/castrate […] mouse prostates were harvested at 16 weeks of age, micro-dissected, and minced using a scalpel. Tissue chunks were incubated in 5 mg/ml collagenase II (Gibco) in Dulbecco's modified Eagle's medium for 1 hour at 37° C., followed by 5 min further digestion with TrypLE (Thermo Fisher). The dissociated cells were passed through a 40 µm nylon mesh (Falcon) to obtain single cells. Twenty thousand cells were embedded in 50 μl of Matrigel (Corning) and plated on 24-well ultra-low attachment plates (Corning). Medium components include the following: Advanced Dulbecco's Modified Eagle Medium containing B-27 supplement (Gibco), 1.25 mM N-Acetyl-L-cysteine (Sigma), 50 ng/ml EGF (Peprotech), 200 nM A83-01 (Tocris Bioscience), 500 ng/ml R-spondin1 (conditioned medium and R-spondin1 expressing plasmid provided by Y.C.), 10 μM Y-27632 (Sigma), and 100 ng/ml Noggin (Peprotech). […] Established organoids were passaged as 3D organoids or cultured as 2D cells. […] Cell proliferation was monitored by analyzing the occupied area (% confluence) of cell images over time. […]
# [6] = system: primary castrate (DHT−) Pten^L/L cells; assay: IncuCyte in vitro proliferation assay, primary castrate Pten^L/L cells; format: cell-based, mouse; conditions: 48 hours, same drug concentrations as in intact cells
# Method: as §2
# [7] = system: AR− APIPC prostate cancer cells; assay: IncuCyte in vitro proliferation assay, AR+ parental versus AR− APIPC prostate cancer cells; format: cell-based, human; conditions: AR-null APIPC cells compared with parental (AR+) cells, 48 hours
# Method: as §2
# [8] = target: T1, eIF4E-eIF4G interaction (eIF4F complex) (Mus musculus, UniProt P63073); assay: eIF4E-eIF4G proximity ligation assay in intact and castrate Pten^L/L cells; format: cell-based; conditions: 50 μM, 24 hours
# T1 construct: Pten^L/L intact and castrate cells were treated with 50 μM 4E2RCat (MedChemExpress) and 20 μM 4EGI-1 (Selleckchem) for 24 hours; endogenous in cells; host or cells: primary intact and castrate Pten L/L mouse prostate cancer cells
# T1 sequence (P63073 whole entry, one chain of several): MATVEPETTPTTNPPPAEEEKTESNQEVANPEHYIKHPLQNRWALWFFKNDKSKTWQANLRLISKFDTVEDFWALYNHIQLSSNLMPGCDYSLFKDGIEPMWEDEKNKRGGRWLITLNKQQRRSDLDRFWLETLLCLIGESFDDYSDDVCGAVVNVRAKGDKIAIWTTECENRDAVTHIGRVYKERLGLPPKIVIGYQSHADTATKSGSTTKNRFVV
# Method: (§3) The in-situ proximity ligation assay (PLA) was optimized to detect eIF4E-eIF4G or eIF4E-4EBP1 interactions in intact/castrate Pten^L/L and castrate Pten^L;4ebp1^M FFPE tissue sections and adherent cells. FFPE sections were deparaffinized, rehydrated, and subjected to antigen retrieval in a decloaking chamber at 95° C. for 30 min in Tris-based antigen unmasking solution, pH 9 (Vector). After 30 min blocking, primary antibody incubation was performed at 4° C. overnight: eIF4E (SCBT), eIF4G (CST), and 4EBP1 (CST).
# (§4) Adherent cells were grown on coverslips placed in 6-well plates until 60-70% confluent. […] Permeabilized cells were washed using 1× wash buffer followed by 1 hour blocking in a humidity chamber at 37° C. Next, cells were incubated with primary antibodies: eIF4G (CST) and eIF4E (BD Biosciences) for 2 hours at room temperature.
# (§5) After incubation with primary antibody, both FFPE tissues and adherent cells were subjected to incubation with secondary antibodies conjugated to oligonucleotides (PLA plus/minus probes) for 1 hour at 37° C. The two hybridized oligonucleotides were joined in a closed circle using a ligase at 37° C. for 30 min. The DNA was then amplified with rolling circle amplification, and detection of the amplicons was carried out using the Brightfield detection kit (Sigma).
# [9] = target: eIF4E-eIF4G interaction (eIF4F complex) (Homo sapiens, UniProt P06730); assay: eIF4E-eIF4G proximity ligation assay in AR+ parental and AR− APIPC cells; format: cell-based; conditions: 10 μM, 24 hours
# eIF4E-eIF4G interaction (eIF4F complex) (Homo sapiens, UniProt P06730), sequence (P06730 whole entry, one chain of several): as the sequence (P63073 whole entry, one chain of several) above, with T12P, P16T, A17T, D174E counted along it
# Method: as §3, §4, §5
# [10] = castrated mice, Monday-Friday, versus vehicle
structure (smiles),measurement,setting,value
"O=C(O)c1ccc(N2C(=O)/C(=C/c3ccc(-c4ccc([N+](=O)[O-])cc4)o3)C=C2c2ccccc2)cc1 [4E1RCat, 4-[(3E)-3-[[5-(4-nitrophenyl)furan-2-yl]methylidene]-2-oxo-5-phenylpyrrol-1-yl]benzoic acid]",toxicity to mice (body weight),AR− APIPC xenograft; castrated NSG mice,without overt toxicity
same,survival,AR− APIPC xenograft; [10],improvement
same,tumor growth,AR− APIPC xenograft; [10],marked decrease
same,toxicity to mice (body weight),[1]; castrated NSG mice,without overt toxicity
same,survival,[1]; [10],improvement
same,tumor growth,[1]; [10],marked decrease
same,tumor growth (sensitivity of the model),[2],completely insensitive
CNC(=O)c1ccc(N2C(=S)N(c3ccc(C#N)c(C(F)(F)F)c3)C(=O)C2(C)C)cc1F [enzalutamide],4ebp1 transcript expression,[3],does not impact
"C[C@]12CCC(=O)C[C@@H]1CC[C@@H]1[C@@H]2CC[C@]2(C)[C@@H](O)CC[C@@H]12 [DHT, dihydrotestosterone]",de novo protein synthesis (puromycin incorporation),[4],decreases
"O=C(O)c1cc(-c2ccc(/C=C3/SC(=S)N(Cc4ccccc4)C3=O)o2)ccc1Cl [4E2RCat, 5-[5-[(E)-(3-Benzyl-4-oxo-2-sulfanylidene-1,3-thiazolidin-5-ylidene)methyl]furan-2-yl]-2-chlorobenzoic acid]",effect on cell proliferation,[5],negligible effects
same,effect on cell proliferation,[6],profound changes
same,sensitivity of proliferation to eIF4E-eIF4G disruption,[7],more sensitive
same,eIF4F complex formation (proximity ligation assay),[8],disrupt eIF4F complex formation
same,eIF4F complex formation (proximity ligation assay),[9],disrupt eIF4F complex formation
"O=C(O)C(Cc1ccccc1[N+](=O)[O-])=NNc1nc(-c2ccc(Cl)c(Cl)c2)cs1 [4EGI-1, α-[2-[4-(3,4-Dichlorophenyl)-2-thiazolyl]-hydrazinylidene]-2-nitrobenzene-propanoic acid]",effect on cell proliferation,[5],negligible effects
same,effect on cell proliferation,[6],profound changes
same,sensitivity of proliferation to eIF4E-eIF4G disruption,[7],more sensitive
